Results reported in patent US9408873B2, “Pharmaceutical composition comprising stem cells treated with NOD2 agonist or culture thereof for prevention and treatment of immune disorders and inflammatory diseases” (KANG STEM BIOTECH CO., LTD., priority 2010, dated 2016).
Entries after “also recorded” stand apart in the source; their conditions may differ.

Assays:
[1] = system: hUCB-MSCs; test: IL-8 production in hUCB-MSCs after stimulation by receptor agonists (ELISA); type: cell-based, human; conditions: 24 hours with agonist
Method: After conforming the expression of the receptors of interest in hUCB-MSC in Example 2-1, the functionality of the receptors investigated by monitoring IL-8 production after stimulation by agonists. For this experiment, hUCB-MSCs were cultured at a density of 2×10^4 cells/well in KSFM medium supplemented with 2% FBS in a 96-well plate. After 24 hours of culturing, the cells were treated with the following agonists corresponding to each of the receptors, i.e., Pam3CSK4 (TLR2 agonist, Pam3), LPS (TLR4 agonist), Tri-DAP (NOD1 agonist, T-DAP), and MDP (NOD2 agonist). Then the samples were incubated for additional 24 hours. The supernatant of each culture was collected, centrifuged, and filtered through a 0.2 μm filter. Then, concentrations of IL-8 and PGE2 were measured using an ELISA kit (R&D Systems, Minneapolis, Minn., USA). Ultrapure LPS (E. coli O111:B4), Pam3CSK4, and Tri-DAP were purchased from Invivogen (San Diego, Calif., USA), MDP [Ac-(6-O-stearoyl)-muramyl-Ala-D-Glu-NH2; muramyl dipeptide] was purchased from Bachem (Bubendorf, Switzerland). Recombinant human Interferon-γ was purchased from Peprotech (Rockyhill, N.J., USA).

[2] = system: human MNC; test: Human MNC proliferation under direct cell to cell contact with hUCB-MSC; type: cell-based; conditions: direct cell to cell interaction
From the text: In the present experiment, the inventors investigated whether TLR and NLR agonists enhance the suppressive activity of hUCB-MSC against human […] proliferation. Based on the study that identified the importance of a direct interact ion between MSCs and lymphocytes in inhibition of lymphocyte proliferation by MSCs, the present inventors investigated whether MDP has an effect on the suppressive ability of hUCB-MSCs against MNC proliferation under the conditions where two cell groups are in contact with each other.

[3] = system: mouse splenocytes; test: Xenogeneic mouse splenocyte proliferation in hUCB-MSC culture medium; type: cell-based
[4] = system: hUCB-MSCs; test: PGE2 secretion by hUCB-MSCs (ELISA); type: cell-based, human
Method: The hUCB-MSCs (2×10^4 cells/well) were cultured in MSC medium supplemented with 2% FBS in a 96-well plate. After 24 hrs of culturing, the cells were treated with 1 μg/mL Pam3CSK4 (TLR2 agonist), 1 μg/mL LPS (TLR4 agonist), 10 μg/mL Tri-DAP (NOD1 agonist) or 10 μg/mL MDP (NOD2 agonist) and cultured for additional 24 hours, then the culture supernatant of each sample was collected. After centrifugation, the culture supernatants were filtered through a 0.2 μm filter. Then, PGE2 concentration was measured using an ELISA kit (R&D Systems, Minneapolis, Minn., USA) following the manufacture's protocol.
To determine the sustainment time of the effects of MDP treatment, the amount of PEG2 produced was monitored after 1 day-long treatment of hUCB-MSCs with MDP. In this experiment, MDP was removed after 1 day of culturing by removing the culture medium and washing the cells with phosphate buffered saline (PBS) 5 times. Then the amount of PEG2 produced was measured. Meanwhile, cells were treated with MDP by the same method described in Example 5-1, and PGE2 concentration was measured. Also, in order to determine the effects of NOD2, Rip2 and COX-2 on PGE2 expression, the cells were treated with each of the control group of Example 3-3 i.e. siRNA (siCTL), siNOD2, siRip2 and COX-2 inhibitor called indomethacin (Sigma (St. Louis, Mo., USA).
(§1) Soluble factors such as hepatocyte growth factor, TGF-β1, indoleamine 2,3 dioxygenase-1 (IDO-1), nitric oxide (NO), and prostaglandin E2 (PGE2) are the strong candidates for regulating immunosuppression by MSC. In order to determine whether TLR and NLR agonists induce the production of soluble factors including NO, PGE2 and TGF-β1 in hUCB-MSCs, the cells were cultured with Pam3CSK4, LPS, Tri-DAP, and MDP for 24 hours, and culture supernatants were collected. Secretion of the soluble factors was monitored by the method described in Examples 5-1 and 5-2.

[5] = system: COX-2; test: COX-2 expression in hUCB-MSCs (immunoblot); type: cell-based, human; conditions: 24 hours with agonist
Method: Cells were treated with 1 μg/mL Pam3CSK4 (TLR2 agonist), 1 μg/mL LPS (TLR4 agonist), 10 μg/mL Tri-DAP (NOD1 agonist) or 10 μg/mL MDP (NOD2 agonist) and cultured for 24 hours. Then, the collected cells were lysed using 1% Nonidet-P40 buffer containing 2 mM dithiothreitol and protease cocktail (Roche, US). The cell lysates were resolved by 12% SDS-PAGE, and transferred onto a nitrocellulose membrane. Then, immunostaining was performed using primary antibodies (COX-2, GAPDH (Santa Cruz biotechnology, Santa Cruz, Calif., USA)). Thereafter, immunostaining was performed using secondary antibodies, and proteins were detected using an enhanced chemiluminescence (ECL) reagent (Intron Biotechnology).
To investigate a correlation between COX-2 expression and the function of NOD2 and Rip2, cells were first treated with MDP and further treated with siNOD2 and siRip2. Then the COX-2 expression level was examined. Protein expression level was measured by using the method described in Example 5-2, and the method for siRNA treatment was the same as described in Example 3-3.

[6] = system: hUCB-MSCs; test: TGF-β1 production by hUCB-MSCs; type: cell-based, human; conditions: 24 hours with agonist
Method: as §1

[7] = system: hMNC; test: IL-10 production by MNC cultured with UCB-MSC supernatant and ConA (ELISA); type: cell-based, human
Method: In order to determine the production level of IL-10, hUCB-MSCs (1×10^5 cells/well) were cultured in MSC medium supplemented with 2% FBS in a 24 well plate. About 24 hours later, the cells were treated with siNOD2 or indomethacin (Indo), and further cultured for 24 hours. Then the cells were washed five times, and fresh RPMI was added. After 5 days of culturing, UCB-MSC supernatant (UMS) was obtained. MNCs (1×10^6/well) were cultured with UMS and ConA (Sigma (St. Louis Mo., USA)). After 3 days of culturing, cell supernatant was collected, centrifuged, and filtered through a 0.2 μm filter. Then, IL-10 concentration was measured using an ELISA kit (R&D Systems, Minneapolis, Minn., USA).
PGE2 produced in bone marrow stromal cells is known to take an important role in IL-10 production by host macrophages (Nemeth, K., A. et al., Bone marrow stromal cells attenuate sepsis via prostaglandin E(2)-dependent reprogramming of host macrophages to increase their interleukin-10 production. Nat Med 15:42-49, 2009). MDP induces PGE2 production in hUCB-MSCs, and thus the present inventors examined whether IL-10 production in hMNCs is increased in the presence of MDP-UCM. The experiment was performed by the same method described in Example 5-6.

[8] = system: hMNC; test: hMNC proliferation cultured with PGE2; type: cell-based, human; conditions: PGE2 at a concentration of 10 ng/mL or higher
Method: (§2) In order to investigate the effect of PGE2 on mononuclear cell (MNC) proliferation, hMNC and mouse splenocytes were cultured with various concentrations of PGE2. The experiment was performed by the same method described in Example 5-5.

[9] = system: mouse splenocytes; test: Mouse splenocyte proliferation cultured with PGE2; type: cell-based; conditions: PGE2 at a concentration of 10 ng/mL or higher
Method: as §2

[10] = system: MNC; test: MNC proliferation in culture medium/supernatant of agonist-treated hUCB-MSC; type: cell-based, human; conditions: for MNC proliferation in culture medium of agonist-treated hUCB-MSC: hUCB-MSC #618, MNC cultured 3 days
Method: Soluble factors are also known to mediate immunosuppression by MSC. So the present inventors examined whether secretory factors generated by UCB-MSCs have an effect on human MNC proliferation. Culture medium (CM) was prepared, and hUCB-MSCs were co-cultured with the agonist for 24 hours. After washing, the cells were cultured fresh for additional […]. Then, a control group containing culture medium (CM) and sample of hUCB-MSCs treated with agonist (#613) were prepared, and MNCs were cultured in CM containing hUCB-MSCs for 3 days.
To determine whether MDP enhances the immunosuppressive activity of in UCB-MSC, the following experiment was performed. A control group containing culture medium (CM) of hUCB-MSC was prepared and the agonist-treated hUCB-MSCs were collected on the 5th day of culturing. Then, MNC was co-cultured in CM of hUCB-MSC for 3 days more, and after culturing, the level of MNC proliferation was monitored.
Additionally, to investigate the correlation among NOD2, Rip2 and MDP in MNC inhibition, the following experiment was conducted using siRNAs of […] and Rip2 and a control group (siCTL). When the cell density reached 60%, siRNAs were transfected into the cells. The siRIPK2 (M-003602-02) which is the siRNA of receptor-interacting serine-threonine kinase 2 (RIPK2 or receptor interacting kinase protein 2 (Rip2) which is the adaptor of […] and NOD2 and the type of kinase called RICK or CARDIAK (Bertin et al, 1999; Inohara et al, 1999; Ogura et al, 2001b)), siNOD2 (J-011338-07) which is the siRNA of NOD2, and a non-targeting control (siControl #1, D-001810-01) were purchased from Dharmacon (Chicago, Ill., USA). DharmaFECT1 (Dharmacon) was used as a transfection reagent, and siRNA was transfected at a concentration of 100 nmol/L. About 48 hours later, the medium was replaced with the fresh one, and the cells were treated with 10 μg/mL of MDP (NOD2 agonist) for 24 hours, except for a negative control (culture medium of MNC only) and a positive control (medium added with UCB-MSC supernatant (UMS) without agonist).
That is, a medium where MNC was cultured alone (i), and a medium added with UCB-MSC supernatant (UMS) without agonist (ii) were prepared as control groups, and a medium treated with MDP and UMS (iii), a medium treated with MDP, UMS, and control siRNA (siCTL) (iv), a medium treated with MDP, UMS and siNOD2 (v), and a medium treated with MDP, UMS, and siRip2 (vi) were prepared. Thereafter, MNC proliferation was measured by optical density at the wavelength of 450 nm.
In order to investigate the role of PGE2 in inhibition of MNC by hUCB-MSC, MNC proliferation was examined when treated with the MSC supernatant, MDP-treated MSC supernatant, and MDP and indomethacin (COX-2 inhibitor)-treated MSC supernatant. The experiment was performed by the same method described in Example 3.

[11] = system: hMNCs; test: Treg population (CD4, CD25, Foxp3) in hMNCs cultured with UCM, flow cytometry; type: cell-based, human
Method: Next, the present inventors investigated the effect of UCM on differentiation of hMNC into regulatory T cells (Treg). For this, hMNCs were cultured with UCM for 5 days, and co-expression of CD4, CD25, and Foxp3 in hMNCs was determined by Flow cytometry.

## CCCCCCCCCCCCCCCCCC(=O)OCC1OC(O)C(NC(C)=O)C(OC(C)C(=O)NC(C)C(=O)NC(CCC(=O)O)C(N)=O)C1O [MDP, Ac-(6-O-stearoyl)-muramyl-Ala-D-Glu-NH2]
[1]
  IL-8 production: increased IL-8 production in hUCB-MSCs in a dose-dependent manner
[2]
  effect of agonist on suppressive activity of hUCB-MSCs against MNC proliferation: did not affect the suppressive activity of hUCB-MSCs against MNC proliferation
[3]
  proliferation of xenogeneic mouse splenocytes in UCM: this inhibitory effect was enhanced by MDP stimulation
[4]; MDP removed after 1 day, 5th day of culturing
  PGE2 production level after removal of MDP: greater than that in the control group
[4]; hUCB-MSCs, 24 hours with agonist (MDP 10 μg/mL)
  PGE2 secretion: significantly enhanced PGE2 secretion; also recorded: enhanced only by addition of MDP
[5]
  COX-2 expression: enhanced COX-2 expression; also recorded: increased
[6]
  TGF-β1 production: enhanced only by addition of MDP
[7]; MNC cultured 3 days with UCB-MSC supernatant and ConA
  IL-10 production by MNC: remarkably increased

## CCCCC[C@H](O)/C=C/[C@H]1[C@H](O)CC(=O)[C@@H]1C/C=C\CCCC(=O)O [PGE2, (5Z, 11(alpha),13E,15S)-11,15-dihydroxy-9-oxo-prosta-5,13-dien-1-oic acid]
[8]
  proliferation of hMNC: remarkably inhibited
[9]
  proliferation of mouse splenocytes: remarkably inhibited

## C[C@H](N)C(=O)N[C@H](CCC(=O)NC(CCCC(N)C(=O)O)C(=O)O)C(=O)O (stereo partly shown) [Tri-DAP, Tri-diaminopimelic Acid]
[1]
  IL-8 production: increased IL-8 production in hUCB-MSCs in a dose-dependent manner
[2]
  effect of agonist on suppressive activity of hUCB-MSCs against MNC proliferation: did not affect the suppressive activity of hUCB-MSCs against MNC proliferation
[10]
  MNC proliferation in culture medium of agonist-treated hUCB-MSC: this effect was absent
[10]; listed as T-DAP
  MNC proliferation in culture medium of agonist-treated hUCB-MSC: only slightly inhibited

## COc1ccc2c(c1)c(CC(=O)O)c(C)n2C(=O)c1ccc(Cl)cc1 [indomethacin]
[10]; co-treatment or siRNA of hUCB-MSC
  effect on the inhibition of MNC proliferation by MDP-treated MSC culture medium (MDP-UCM): MNC proliferation rate similar to that of the negative control group; also recorded: counteracted
[4]; hUCB-MSCs / MDP-UCM
  effect on MDP-enhanced PGE2 production: MDP-enhanced PGE2 production was inhibited
[7]
  effect on MDP-increased IL-10 production by MNC: IL-10 production was suppressed; also recorded: reversed
[11]
  effect on the increase in Treg population by MDP-UCM: reversed

## Pam3CSK4
[1]
  IL-8 production: increased IL-8 production in hUCB-MSCs in a dose-dependent manner
[2]
  effect of agonist on suppressive activity of hUCB-MSCs against MNC proliferation: did not affect the suppressive activity of hUCB-MSCs against MNC proliferation
[10]
  MNC proliferation in culture medium of agonist-treated hUCB-MSC: this effect was absent
[10]; listed as Pam3
  MNC proliferation in culture medium of agonist-treated hUCB-MSC: only slightly inhibited
